The text below walks through data of publication PMC8251996 (2021).

One assay has as its system ds6 (DNA, duplex) CGTACG. As to the kind of experiment: fluorescence titration, independent equivalent sites. The settings on record: Na+ (100 mM NaCl, 10 mM sodium phosphate); buffer not in material.
The subject of assay [1] is ds10 (DNA, duplex) AAGAATTCTT
Described as above. The following applies: Na+ (100 mM NaCl, 10 mM sodium phosphate); buffer not in material.

For `Oc1ccc(/C=C/c2cc(O)cc(O)c2)cc1`, the K b entry is recorded as “(1.6±1.4)×10^6 M^-1” in the assay on ds6 (DNA, duplex) CGTACG and “(1.6±1.3)×10^6 M^-1” in assay [1].
As for `COc1cc(/C=C/c2ccc(O)cc2)cc(OC)c1`, the K b entry is “(1.2±0.5)×10^6 M^-1” in the assay with ds6 (DNA, duplex) CGTACG and “(1.6±0.9)×10^6 M^-1” in assay [1].
